From patent US6534289B1, “Nucleic acids encoding mGLuR/CaR chimera” (NPS Pharmaceuticals, Inc., priority 1995, dated 2003)

What was measured:
[1] = system: HEK293 cells expressing pCEPCaR/R1; assay: HEK293/pCEPCaR/R1 Fura assay; assay type: cell-based, human; settings: fura-2 loaded stably transfected HEK293 cells, FIG. 9
Procedure: The DNA from plasmid pCaR/R1 was digested and cloned into the commercially available episomal mammalian expression vector, pCEP4 (Invitrogen), using the restriction enzymes Kpn I and Not I. The ligation products were transfected into DH5a cells which had been made competent for DNA transformation. […] A clone was selected from the colonies which grew. This clone, pCEPCaR/R1 was characterized by restriction enzyme digestion.
Human embryonic kidney cells (293, ATCC, CRL 1573) were grown in a routine manner. Cells were plated in 10 cm cell-culture plates in Dulbecco's modified Eagle's medium (D-MEM) containing 10% fetal calf serum (FCS) and 1×Penicillin-Streptomycin (PS, Life Technologies) so that they would be ˜70% confluent after an overnight incubation. […]
Measurements of intracellular calcium release in response to increases in extracellular calcium is quantitated using the Fura assay (Parks et al. 1989). […] Measurements of fluorescence are performed at 37° C. with constant stirring using a custom-built spectrofluorimeter (Biomedical Instrumentation Group, University of Pennsylvania). […] To calibrate fluorescence signals, digitonin (Sigma, St. Louis, Mo.; catalog # D 5628; 50 μg/ml, final) is added to obtain Fmax, and the apparent Fmin is determined by adding EGTA (10 mM, final) and Tris base (pH ˜10, final). […]

human CaR = target: T1, human CaR (Homo sapiens, UniProt P41180); assay: Xenopus oocyte voltage clamp, Cl− currents, CaR; assay type: cell-based
T1 construct: expressed in transfected cells; host or cells: Xenopus laevis oocytes injected with in vitro transcribed RNA from phPCaR4.0
T1 sequence (P41180 20-1078): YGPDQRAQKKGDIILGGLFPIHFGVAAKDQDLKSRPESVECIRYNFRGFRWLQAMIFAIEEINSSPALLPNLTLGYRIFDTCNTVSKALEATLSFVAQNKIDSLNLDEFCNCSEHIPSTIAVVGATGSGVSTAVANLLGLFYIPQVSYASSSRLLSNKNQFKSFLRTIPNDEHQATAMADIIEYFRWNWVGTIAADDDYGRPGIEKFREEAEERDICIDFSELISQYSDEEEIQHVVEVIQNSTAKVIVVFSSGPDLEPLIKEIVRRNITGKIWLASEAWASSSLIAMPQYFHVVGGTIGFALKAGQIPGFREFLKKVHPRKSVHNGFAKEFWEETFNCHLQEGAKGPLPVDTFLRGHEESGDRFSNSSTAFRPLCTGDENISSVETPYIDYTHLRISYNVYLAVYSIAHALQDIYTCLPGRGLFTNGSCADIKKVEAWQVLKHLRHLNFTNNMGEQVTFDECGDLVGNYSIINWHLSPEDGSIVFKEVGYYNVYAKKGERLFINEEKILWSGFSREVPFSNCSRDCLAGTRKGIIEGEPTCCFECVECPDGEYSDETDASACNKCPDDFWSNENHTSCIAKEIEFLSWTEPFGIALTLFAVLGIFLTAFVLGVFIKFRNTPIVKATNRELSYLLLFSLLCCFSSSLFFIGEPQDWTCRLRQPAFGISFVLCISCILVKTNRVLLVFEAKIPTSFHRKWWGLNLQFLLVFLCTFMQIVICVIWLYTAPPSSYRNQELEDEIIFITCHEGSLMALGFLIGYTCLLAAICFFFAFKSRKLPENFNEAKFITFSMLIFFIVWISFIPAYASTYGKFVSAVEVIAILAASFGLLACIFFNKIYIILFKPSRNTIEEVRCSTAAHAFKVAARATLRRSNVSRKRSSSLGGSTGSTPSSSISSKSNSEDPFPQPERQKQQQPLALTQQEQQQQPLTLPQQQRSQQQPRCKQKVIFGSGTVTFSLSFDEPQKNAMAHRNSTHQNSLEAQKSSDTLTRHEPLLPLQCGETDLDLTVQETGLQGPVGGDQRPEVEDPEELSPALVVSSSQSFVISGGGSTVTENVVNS

mGluR1/CaR = target: T2, mGluR1/CaR (UniProt P23385+P41180); assay: Xenopus oocyte voltage clamp, Cl− currents, mGluR1/CaR chimera; assay type: cell-based, rat mGluR1 / human calcium receptor; settings: FIG. 6
T2 construct: expressed in transfected cells; host or cells: Xenopus laevis oocytes injected with in vitro transcribed RNA
T2 sequence (P23385+P41180 fused): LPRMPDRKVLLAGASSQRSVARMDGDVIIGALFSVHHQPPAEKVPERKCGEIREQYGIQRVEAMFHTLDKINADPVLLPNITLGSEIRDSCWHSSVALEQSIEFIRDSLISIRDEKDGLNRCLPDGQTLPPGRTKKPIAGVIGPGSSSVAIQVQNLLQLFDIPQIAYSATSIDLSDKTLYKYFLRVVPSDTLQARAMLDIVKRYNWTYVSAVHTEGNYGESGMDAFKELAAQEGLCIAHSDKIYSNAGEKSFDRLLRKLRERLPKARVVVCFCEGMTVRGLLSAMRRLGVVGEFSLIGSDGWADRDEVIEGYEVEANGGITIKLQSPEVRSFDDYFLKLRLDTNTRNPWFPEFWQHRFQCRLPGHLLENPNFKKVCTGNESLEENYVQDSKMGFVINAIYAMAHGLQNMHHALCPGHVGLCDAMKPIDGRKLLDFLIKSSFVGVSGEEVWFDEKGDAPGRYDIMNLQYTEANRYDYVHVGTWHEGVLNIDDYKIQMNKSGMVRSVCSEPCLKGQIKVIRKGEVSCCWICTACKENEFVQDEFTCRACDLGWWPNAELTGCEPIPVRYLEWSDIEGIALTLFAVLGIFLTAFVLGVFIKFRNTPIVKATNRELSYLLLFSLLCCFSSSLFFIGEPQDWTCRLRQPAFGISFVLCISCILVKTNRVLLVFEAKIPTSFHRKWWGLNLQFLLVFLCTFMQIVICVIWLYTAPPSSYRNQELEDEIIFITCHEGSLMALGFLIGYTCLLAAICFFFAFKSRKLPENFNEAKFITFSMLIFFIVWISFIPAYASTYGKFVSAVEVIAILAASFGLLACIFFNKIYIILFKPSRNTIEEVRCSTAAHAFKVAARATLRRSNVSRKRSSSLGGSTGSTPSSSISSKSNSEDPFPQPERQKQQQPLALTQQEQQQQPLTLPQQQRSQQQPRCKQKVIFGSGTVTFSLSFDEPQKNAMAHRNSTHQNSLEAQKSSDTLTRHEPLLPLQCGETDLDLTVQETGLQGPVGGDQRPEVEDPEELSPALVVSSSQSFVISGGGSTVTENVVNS

[Ca+2] [calcium]
intracellular calcium [1]: increases in intracellular calcium
activation of CaR, response amplitudes (Cl− currents in response to increases in intracellular Ca^2+) (human CaR; Xenopus oocyte, increasing extracellular calcium, FIG. 7): activation

N[C@@H](CCC(=O)O)C(=O)O [l-glutamate]
Cl− current (human CaR; Xenopus oocytes injected with human CaR RNA, FIG. 8B): elicits oscillatory increases in Cl− current

N[C@@H](Cn1oc(=O)[nH]c1=O)C(=O)O [quisqualate]
activation of mGluR1/CaR as measured by Cl− currents generated in response to the release of intracellular Ca^2+ (mGluR1/CaR): activation
